Test results as given in the NIST ThermoML archive (doi:10.1021/je060353z).
Values joined by “and” are separate entries in the source; they are usually repeats but may differ in a detail not shown here. Equal entries are not always repeated.

Legend:
[1] = 101 kPa, Liquid
[2] = xn = mol fraction of the nth substance listed; conditions: 101 kPa, Liquid

Clc1ccccc1 [chlorobenzene]
[1]
Conditions | mass density | speed of sound [m/s] | viscosity [mPa·s]
298.15 K | 1100.97 kg/m3 and 1100.67 kg/m3 | 1268 | 0.757
303.15 K | 1095.1 kg/m3 | 1249.4 | 0.714
308.15 K | 1089.08 kg/m3 | 1230.9 | 0.677
313.15 K | 1083.66 kg/m3 | 1212.6 | 0.617

CCCCCCCCCCO [decan-1-ol]
[1]
Conditions | mass density [kg/m3] | speed of sound [m/s] | viscosity [mPa·s]
298.15 K | 826.762 | 1380 | 11.83
303.15 K | 822.853 | 1365 | 9.754
308.15 K | 819.427 | 1346.1 | 8.135
313.15 K | 815.983 | 1329.3 | 6.842

CCCCCCCO [heptan-1-ol]
[1]
Conditions | mass density [kg/m3] | speed of sound [m/s] | viscosity [mPa·s]
298.15 K | 818.732 | 1327.3 | 5.944
303.15 K | 815.287 | 1313.6 | 5.069
308.15 K | 811.737 | 1293.9 | 4.333
313.15 K | 808.162 | 1277.2 | 3.726

CCCCCCO [hexan-1-ol]
[1]
Conditions | mass density [kg/m3] | speed of sound [m/s] | viscosity [mPa·s]
298.15 K | 815.23 | 1304.7 | 4.594
303.15 K | 812.118 | 1287.9 | 3.887
308.15 K | 808.482 | 1271.1 | 3.359
313.15 K | 804.811 | 1254.5 | 2.914

CCCCCCCCCO [nonan-1-ol]
[1]
Conditions | mass density [kg/m3] | speed of sound [m/s] | viscosity [mPa·s]
298.15 K | 824.478 | 1365.5 | 9.715
303.15 K | 821.044 | 1353.6 | 7.927
308.15 K | 817.582 | 1331.8 | 6.664
313.15 K | 814.098 | 1315 | 5.645

CCCCCCCCCO [nonan-1-ol] + Clc1ccccc1
[2]
Conditions | mass density [kg/m3] | speed of sound [m/s] | viscosity [mPa·s]
298.15 K, x2 = 0 | 824.478 | 1365.5 | 9.715
298.15 K, x2 = 0.1529 | 850.648 | 1350.5 | 6.576
298.15 K, x2 = 0.3008 | 879.504 | 1333.3 | 4.488
298.15 K, x2 = 0.4379 | 910.112 | 1316.2 | 3.135
298.15 K, x2 = 0.5505 | 938.617 | 1302.2 | 2.329
298.15 K, x2 = 0.6413 | 964.273 | 1291.1 | 1.828
298.15 K, x2 = 0.7273 | 991.186 | 1281.2 | 1.455
298.15 K, x2 = 0.8031 | 1017.42 | 1274 | 1.192
298.15 K, x2 = 0.8744 | 1044.71 | 1269 | 0.999
298.15 K, x2 = 0.937 | 1071.14 | 1267.1 | 0.864
303.15 K, x2 = 0 | 821.044 | 1353.6 | 7.927
303.15 K, x2 = 0.1529 | 846.995 | 1332.6 | 5.56
303.15 K, x2 = 0.3008 | 875.625 | 1315.8 | 3.876
303.15 K, x2 = 0.4379 | 906.014 | 1299.5 | 2.752
303.15 K, x2 = 0.5505 | 934.309 | 1286 | 2.07
303.15 K, x2 = 0.6413 | 959.757 | 1275.1 | 1.646
303.15 K, x2 = 0.7273 | 986.433 | 1265.4 | 1.325
303.15 K, x2 = 0.8031 | 1012.44 | 1257.7 | 1.097
303.15 K, x2 = 0.8744 | 1039.48 | 1252 | 0.924
303.15 K, x2 = 0.937 | 1065.72 | 1249.1 | 0.802
308.15 K, x2 = 0 | 817.582 | 1331.8 | 6.664
308.15 K, x2 = 0.1529 | 843.265 | 1315.5 | 4.745
308.15 K, x2 = 0.3008 | 871.65 | 1298.5 | 3.365
308.15 K, x2 = 0.4379 | 901.759 | 1281.7 | 2.433
308.15 K, x2 = 0.5505 | 929.764 | 1267.7 | 1.858
308.15 K, x2 = 0.6413 | 954.969 | 1256.3 | 1.493
308.15 K, x2 = 0.7273 | 981.393 | 1246.3 | 1.205
308.15 K, x2 = 0.8031 | 1007.14 | 1238.5 | 1.014
308.15 K, x2 = 0.8744 | 1033.95 | 1233 | 0.869
308.15 K, x2 = 0.937 | 1059.96 | 1231.5 | 0.764
313.15 K, x2 = 0 | 814.098 | 1315 | 5.645
313.15 K, x2 = 0.1529 | 839.584 | 1299.4 | 4.074
313.15 K, x2 = 0.3008 | 867.761 | 1282 | 2.935
313.15 K, x2 = 0.4379 | 897.663 | 1264.9 | 2.152
313.15 K, x2 = 0.5505 | 925.493 | 1251 | 1.658
313.15 K, x2 = 0.6413 | 950.508 | 1239.8 | 1.346
313.15 K, x2 = 0.7273 | 976.738 | 1229.8 | 1.094
313.15 K, x2 = 0.8031 | 1002.28 | 1221.8 | 0.919
313.15 K, x2 = 0.8744 | 1028.88 | 1215.6 | 0.775
313.15 K, x2 = 0.937 | 1054.7 | 1213.3 | 0.676

CCCCCCCCO [octan-1-ol] + Clc1ccccc1
[2], x2 = 0
Conditions | mass density [kg/m3] | speed of sound [m/s] | viscosity [mPa·s]
298.15 K | 821.826 | 1347.8 | 7.661
303.15 K | 818.23 | 1338 | 6.402
308.15 K | 814.737 | 1314.3 | 5.425
313.15 K | 810.098 | 1297.6 | 4.628
